According to patent publication US20240118287A1, “ANALYSIS PLATE FOR A MASS SPECTROMETRY ANALYSIS AND ASSOCIATED METHOD FOR CHARACTERIZING MICROORGANISMS BY MASS SPECTROMETRY” (priority 2021, published 2024):
≈ marks a conversion by molar mass, not a printed value.

What was measured:
Type in all cases: cell-based
Ref 1 K. pneumoniae = test: MIC by microdilution in broth, reference strain Ref 1; design: key to Phenotype (R = resistant, S = sensitive): RA signifies resistance to amoxicillin; RC signifies resistance to ceftriaxone; RM signifies resistance to meropenem; RO resistance to oxacillin; SA signifies sensitive to amoxicillin; SC signifies sensitive to ceftriaxone; SM signifies sensitive to meropenem; SO sensitive to oxacillin; settings: for Phenotype (R = resistant, S = sensitive): KPC-2; for MIC: Klebsiella pneumoniae, KPC-2, microdilution in broth, read-out: Minimum inhibitory concentration (MIC in μg/ml)
Description: (§1) The minimum inhibitory concentration (MIC in μg/ml) was determined by microdilution in broth, a technique very widely used by a person skilled in the art.

Ref 2 K. pneumoniae = test: MIC by microdilution in broth, reference strain Ref 2; design: key to Phenotype (R = resistant, S = sensitive): RA signifies resistance to amoxicillin; RC signifies resistance to ceftriaxone; RM signifies resistance to meropenem; RO resistance to oxacillin; SA signifies sensitive to amoxicillin; SC signifies sensitive to ceftriaxone; SM signifies sensitive to meropenem; SO sensitive to oxacillin; settings: for MIC: Klebsiella pneumoniae, OXA-48, microdilution in broth, read-out: Minimum inhibitory concentration (MIC in μg/ml); for Phenotype (R = resistant, S = sensitive): OXA-48
Description: as §1

Ref 3 E. coli = test: MIC by microdilution in broth, reference strain Ref 3; design: key to Phenotype (R = resistant, S = sensitive): RA signifies resistance to amoxicillin; RC signifies resistance to ceftriaxone; RM signifies resistance to meropenem; RO resistance to oxacillin; SA signifies sensitive to amoxicillin; SC signifies sensitive to ceftriaxone; SM signifies sensitive to meropenem; SO sensitive to oxacillin; settings: for MIC: Escherichia coli, TEM-2, microdilution in broth, read-out: Minimum inhibitory concentration (MIC in μg/ml); for Phenotype (R = resistant, S = sensitive): TEM-2
Description: as §1

Ref 4 E. coli = test: MIC by microdilution in broth, reference strain Ref 4; design: key to Phenotype (R = resistant, S = sensitive): RA signifies resistance to amoxicillin; RC signifies resistance to ceftriaxone; RM signifies resistance to meropenem; RO resistance to oxacillin; SA signifies sensitive to amoxicillin; SC signifies sensitive to ceftriaxone; SM signifies sensitive to meropenem; SO sensitive to oxacillin; settings: for MIC: Escherichia coli, microdilution in broth, read-out: Minimum inhibitory concentration (MIC in μg/ml)
Description: as §1

Ref 5 E. coli = test: MIC by microdilution in broth, reference strain Ref 5; design: key to Phenotype (R = resistant, S = sensitive): RA signifies resistance to amoxicillin; RC signifies resistance to ceftriaxone; RM signifies resistance to meropenem; RO resistance to oxacillin; SA signifies sensitive to amoxicillin; SC signifies sensitive to ceftriaxone; SM signifies sensitive to meropenem; SO sensitive to oxacillin; settings: CTX-M; for MIC: Escherichia coli, microdilution in broth, read-out: Minimum inhibitory concentration (MIC in μg/ml)
Description: as §1

[1] = system: Isolate 1 (Escherichia coli); test: Resistance characterization on functionalized analysis plate, MALDI-TOF (Example 4); settings: threshold identification probability ≥90% for at least 3 deposits out of 4, amoxicillin 2, ceftriaxone 24, meropenem 2 μg/ml
Description: (§2) This cassette comprises a gasket so as to be able to dispose the analysis plate on a sponge impregnated to saturation with Muller-Hinton culture medium. The sponge impregnated with a culture medium serves as a support, and it is made of porous material as described in the description.
(§3) A cover was placed on the cassette containing the analysis plate so as to be clipped on the cassette and close the device without touching the top of the drops.
(§4) The analysis cassettes thus prepared were incubated in the stove at 37° C. for 2, 3, 4 or 5 hours.
(§5) At the end of the incubation step, the analysis plates are placed on very absorbent, dry blotting paper, with an absorption capacity of 25 μL·cm^−2, so that the drops present on the analysis plate are aspirated by capillarity through the analysis zones made of porous material.
(§6) 1 μl of HCCA matrix, alpha-cyano 4-hydroxycinnamic acid (VITEK®MS-CHCA, bioMérieux reference 411071) was deposited on the analysis zones, comprising the microorganisms and the antimicrobial agent, and on the calibration zones comprising the calibrant.
(§7) The analysis plate is then dried and analyzed by VITEK®MS as described in example 1.
(§8) The isolates identified in example 1 were diluted to 0.5 McFarland (McF) in Muller-Hinton medium (bioMérieux reference AEB 110699), then diluted again to 1/100° for the Gram-negative bacteria and to 1/10° for the Gram-positive bacteria, always in Muller-Hinton medium.
(§9) Drops of 2 μl of the final dilutions were deposited on the analysis zones of the analysis plates according to the invention as described in example 2. As before, the dilutions of E. coli and of K. pneumoniae were analyzed on the targets with 16 deposits of amoxicillin, 16 deposits of ceftriaxone and 16 deposits of meropenem. The dilutions of Staphylococci were analyzed on the targets with 2 μg/ml of oxacillin.
(§10) The analysis was carried out according to the same procedure as in example 3 with an incubation of 4 h for all the microorganisms. Moreover, the results were interpreted as in example 3, i.e. with a threshold of identification probability greater than or equal to 90% for at least 3 deposits out of 4.

[2] = system: Isolate 3 (Escherichia coli); test: as above; settings: threshold identification probability ≥90% for at least 3 deposits out of 4, amoxicillin 2, ceftriaxone 24, meropenem 2 μg/ml
Description: as §2, §3, §4, §5, §6, §7, §8, §9, §10

[3] = system: Isolate 5 (Escherichia coli); test: as above; settings: isolate 5 (E. coli); threshold identification probability ≥90% for at least 3 deposits out of 4; amoxicillin 2, ceftriaxone 24, meropenem 2 μg/ml
Description: as §2, §3, §4, §5, §6, §7, §8, §9, §10

[4] = system: Isolate 7 (Klebsiella pneumoniae); test: as above; settings: isolate 7 (K. pneumoniae); threshold identification probability ≥90% for at least 3 deposits out of 4; amoxicillin 2, ceftriaxone 24, meropenem 2 μg/ml
Description: as §2, §3, §4, §5, §6, §7, §8, §9, §10

[5] = system: Isolate 8 (Klebsiella pneumoniae); test: as above; settings: isolate 8 (K. pneumoniae); threshold identification probability ≥90% for at least 3 deposits out of 4; amoxicillin 2, ceftriaxone 24, meropenem 2 μg/ml
Description: as §2, §3, §4, §5, §6, §7, §8, §9, §10

Row | Compound | Phenotype (R = resistant, S = sensitive) (Ref 1 K. pneumoniae) | MIC (Ref 1 K. pneumoniae) [µg/mL] | MIC (Ref 2 K. pneumoniae) [µg/mL] | Phenotype (R = resistant, S = sensitive) (Ref 2 K. pneumoniae) | MIC (Ref 3 E. coli) [µg/mL] | Phenotype (R = resistant, S = sensitive) (Ref 3 E. coli) | Phenotype (R = resistant, S = sensitive) (Ref 4 E. coli) | MIC (Ref 4 E. coli) [µg/mL] | Phenotype (R = resistant, S = sensitive) (Ref 5 E. coli) | MIC (Ref 5 E. coli) [µg/mL] | Isolate characterized as resistant or sensitive to the antibiotic [1] | Isolate characterized as resistant or sensitive to the antibiotic [2] | Isolate characterized as resistant or sensitive to the antibiotic [3] | Isolate characterized as resistant or sensitive to the antibiotic [4] | Isolate characterized as resistant or sensitive to the antibiotic [5]
1 | CC1(C)S[C@@H]2[C@H](NC(=O)[C@H](N)c3ccc(O)cc3)C(=O)N2[C@H]1C(=O)O [Amoxicillin, amoxicillin] | RA | > 128 | 64 (≈ 175 µM) | RA | 32 (≈ 87.6 µM) | RA | SA | 1 (≈ 2.74 µM) | RA | > 128 | resistant | resistant | resistant | resistant | resistant
2 | CO/N=C(\C(=O)N[C@@H]1C(=O)N2C(C(=O)O)=C(CSc3nc(=O)c(=O)[nH]n3C)CS[C@H]12)c1csc(N)n1 [Ceftriaxone, ceftriaxone] | RC | 64 (≈ 115 µM) | 32 (≈ 57.7 µM) | RC | 16 (≈ 28.9 µM) | RC | SC | 0.25 (≈ 0.451 µM) | RC | 8 (≈ 14.4 µM) | sensitive | resistant | sensitive | sensitive | resistant
